Assays:
[1] = target: HA-GST-Rheb (GTP-γ-S loaded) activating mTORC1 (Homo sapiens (Human), UniProt Q15382); assay: Rheb-dependent in vitro kinase assay (Rheb-IVK; LanthaScreen or Western readout); type: biochemical; conditions: Rheb-dependent in vitro kinase assay; read-out: IVK IC50
[2] = target: Rheb (Homo sapiens (Human), UniProt Q15382); assay: Affinity Selection Mass Spectrometry (ASMS); type: binding; conditions: affinity (R3/R0) in Affinity Selection Mass Spectrometry assay
Protocol: Method 2 (Affinity Selection Mass Spectrometry
Protein: Rheb (19 KDa) in the following buffer: 20 mM Tris, pH 8.0, 200 mM NaCl, 2 mM DTT, 5 mM MgCl2 was prepared as under.
Human Rheb protein (I-169) was purified from BL21 (DE3) E. coli using a His-Smt-Rheb expression vector. The cell paste was lysed in lysis buffer (50 mM HEPES pH 7.5, 0.5 M NaCl, 5% Glycerol, 1% CHAPS, EDTA free protease inhibitor tablets, lysozyme to 1 mg/mL, benzonase 250U), sonicated, and purified on a HiTrap Ni Chelating Column (GE Healthcare) using the following buffer: 50 mM HEPES pH 7.5, 0.5 M NaCl, 5% Glycerol, and imidazole increasing in concentration from 5 mM to 500 mM. The His-Smt tag was cleaved using a U1p1 enzyme and dialyzed into 50 mM HEPES pH 7.5, 0.5 M NaCl, 5% Glycerol. The resultant protein was again purified on a Ni Chelating column to remove the U1p1 enzyme and His-Smt tag and then purified by size exclusion chromatography on a Sephacryl S-100 26/60 column into the following final buffer: 20 mM NaPhos pH 7.0, 100 mM NaCl, 5 mM MgCl2, 2 mM TCEP.
Concentrations: 60 μM Rheb, 180 μM GDP and 2 μM of each compound,
Ultrafiltration Filter (Sartorius, Germany) MW cutoff: 10 KDa
• (a) Sample preparation: Prepare sample for each group in 1.5 mL microcentrifuge tube according to the experimental design, total volume 550 μL. In a standard ASMS experiment there are two groups: Protein plus (P+L+) and protein minus (P−L+). • (b) Transfer 50 μL from the 550 μL to a vial as R0 sample. Incubate the rest solution for 30 min at room temperature. Then transfer the 500 μL into an ultrafiltration filter tube and centrifuge at 12×10^3 rpm for ˜10 min, leave about 50 μL solution (otherwise adjust this time). • (c) Add incubation buffer to the ultrafiltration filter tube to about 500 μL. Stir gently and centrifuge mixtures as above, leave about 50 μL solution. • (d) Repeat the step c. Transfer the remaining 50 μL upper layer solution to a new vial as R^3 sample. Sample Extraction: Add 150 μL MeCN to denature the protein completely. Centrifuge at 12×10^3 rpm for 5 min. Transfer the supernatant into LC-MS auto sampler vials for LC-MS analysis (5 uL injection).
Waters Acquity UPLC system, Waters ACQUITY UPLC BEH C18 column (2.1×50 mm, 1.7 μM); Mobile phase A: 0.1% formic acid solution, B: MeCN; 0.3 mL/min, 5 μL injection, gradient elution (Table 5).
Waters Synapt G1 Q-TOF system, positive or negative ion scan modes; Capillary voltage: 3.0 kV; Method: MSE; Mass range: m/z=100-1000; Source temperature: 120° C.; Desolvation temperature: 400° C.; Collision voltage: 35 V; Sampling Cone: 35 V; Extraction Cone: 4.0 V; Cone Gas: 50 L/h; Desolvation Gas: 800 L/h.

Sequence of Rheb (Q15382 1-169 limits assumed): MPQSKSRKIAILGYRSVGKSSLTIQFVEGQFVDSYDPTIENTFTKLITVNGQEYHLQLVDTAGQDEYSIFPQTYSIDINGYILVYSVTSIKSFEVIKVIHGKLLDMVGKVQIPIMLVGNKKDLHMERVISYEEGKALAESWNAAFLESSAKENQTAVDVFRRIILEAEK
Sequence of HA-GST-Rheb (GTP-γ-S loaded) activating mTORC1 (Q15382 1-181): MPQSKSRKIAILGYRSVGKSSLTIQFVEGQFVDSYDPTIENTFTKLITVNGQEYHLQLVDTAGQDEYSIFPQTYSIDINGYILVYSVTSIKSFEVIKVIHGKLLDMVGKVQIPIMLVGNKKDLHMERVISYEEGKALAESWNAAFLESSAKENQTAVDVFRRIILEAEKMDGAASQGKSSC

CN1CCN(C(=O)c2cc3c(Sc4ccc(Cl)cc4)cc(Cl)cc3[nH]2)CC1 [I-90]
IC50 [1]: > 100 µM
ASMS (R3/R0) [2]: B (an affinity (R3/R0) between 100% and 20%)

CN1CCN(c2ccc(-c3nc4cc(Cl)c(Cl)cc4[nH]3)cc2)CC1 [I-366, 5,6-dichloro-2-(4-(4-methylpiperazin-1-yl)phenyl)-1H-benzo[d]imidazole]
IC50 [1]: 100 to 300 µM
ASMS (R3/R0) [2]: A (an affinity (R3/R0)>100%)

CN(C)C(=O)c1ccc(Cn2c(C(=O)O)cc3ccc(Sc4ccc(Cl)c(Cl)c4)c(Br)c32)cc1 [I-6, 7-bromo-6-(3,4-dichlorophenylthio)-1-(4-(dimethylcarbamoyl)benzyl)-1H-indole-2-carboxylic acid]
IC50 [1]: < 10 µM
ASMS (R3/R0) [2]: B (an affinity (R3/R0) between 100% and 20%)

O=C(Nc1cccnc1)c1ccc(Cn2c(C(=O)O)cc3c(Br)cc(Oc4ccccc4)cc32)cc1 [I-56, 4-bromo-6-phenoxy-1-(4-(pyridin-3-ylcarbamoyl)benzyl)-1H-indole-2-carboxylic acid]
IC50 [1]: 10 to 100 µM
ASMS (R3/R0) [2]: B (an affinity (R3/R0) between 100% and 20%)

O=C(O)c1cc2c(Sc3ccc(OC(F)(F)F)cc3)cc(Cl)cc2[nH]1 [I-129, 6-chloro-4-(4-(trifluoromethoxy)phenylthio)-1H-indole-2-carboxylic acid]
IC50 [1]: 10 to 100 µM
ASMS (R3/R0) [2]: B (an affinity (R3/R0) between 100% and 20%)

CN1CCN(c2ccc(NC(=O)c3cc4c(Br)cc(Sc5ccc(Cl)c(Cl)c5)cc4[nH]3)cc2)CC1 [I-96, 4-bromo-6-(3,4-dichlorophenylthio)-N-(4-(4-methylpiperazin-1-yl)phenyl)-1H-indole-2-carboxamide]
IC50 [1]: 10 to 100 µM
ASMS (R3/R0) [2]: A (an affinity (R3/R0)>100%)

OCc1nc2c(OC[C@H]3CCCC[C@@H]3O)c(Cl)c(Cl)cc2[nH]1 [I-439, 2-((5,6-dichloro-2-(hydroxymethyl)-1H-benzo[d]imidazol-4-yloxy)methyl)cyclohexanol]
IC50 [1]: 10 to 100 µM
ASMS (R3/R0) [2]: C (an affinity (R3/R0)<20%)

OCc1nc2c(OCC3CCCC3O)c(Cl)c(Cl)cc2[nH]1 (centres unmarked) [I-379, 2-((5,6-dichloro-2-(hydroxymethyl)-1H-benzo[d]imidazol-4-yloxy)methyl)cyclopentanol]
IC50 [1]: > 100 µM
ASMS (R3/R0) [2]: C (an affinity (R3/R0)<20%)

O=C(O)c1cc2nc(-c3ccnc4[nH]ccc34)[nH]c2c(Cl)c1Cl [I-327]
IC50 [1]: > 100 µM
ASMS (R3/R0) [2]: C (an affinity (R3/R0)<20%)

OCc1nc2cc(OCc3ccc(Oc4ccccc4)cc3)c(Cl)c(Cl)c2[nH]1 [I-320, [6,7-dichloro-5-[(4-phenoxyphenyl)methoxy]-1H-benzimidazol-2-yl]methanol]
IC50 [1]: 10 to 100 µM
ASMS (R3/R0) [2]: B (an affinity (R3/R0) between 100% and 20%)

O=C(O)c1ccc(-c2nc3cc(Cl)c(Cl)cc3[nH]2)cc1 [I-364, 4-(5,6-dichloro-1H-benzo[d]imidazol-2-yl)benzoic acid]
IC50 [1]: 100 to 300 µM
ASMS (R3/R0) [2]: B (an affinity (R3/R0) between 100% and 20%)

Cn1c(CO)cc2c(Oc3cccc(Cl)c3)cccc21 [I-271]
IC50 [1]: > 3 µM
ASMS (R3/R0) [2]: C (an affinity (R3/R0)<20%)

OCc1nc2cc(SCc3ccc(Cl)cc3)c(Cl)c(Cl)c2[nH]1 [I-356, (6,7-dichloro-5-(4-chlorobenzylthio)-1H-benzo[d]imidazol-2-yl)methanol]
IC50 [1]: 10 to 100 µM
ASMS (R3/R0) [2]: A (an affinity (R3/R0)>100%)

O=C(O)c1cc2c(Cl)cc(-c3ccccc3)cc2[nH]1 [I-48, 4-chloro-6-phenyl-1H-indole-2-carboxylic acid]
IC50 [1]: 10 to 100 µM
ASMS (R3/R0) [2]: C (an affinity (R3/R0)<20%)

CN(C)C(=O)c1ccc(Cn2c(C#N)cc3c(Br)cc(Sc4ccc(Cl)c(Cl)c4)cc32)cc1 [I-13]
IC50 [1]: > 100 µM
ASMS (R3/R0) [2]: B (an affinity (R3/R0) between 100% and 20%)

OCc1nc2c(OC[C@H]3CCCC[C@H]3O)c(Cl)c(Cl)cc2[nH]1 (racemic) [I-394, (+,−)-cis-2-((5,6-dichloro-2-(hydroxymethyl)-1H-benzo[d]imidazol-4-yloxy)methyl)cyclohexanol]
IC50 [1]: 10 to 100 µM
ASMS (R3/R0) [2]: B (an affinity (R3/R0) between 100% and 20%)

Reference: US11339144B2 (Navitor Pharmaceuticals, Inc., priority 2017, dated 2022)
